We go through 1 compound from ChEMBL document CHEMBL2074479, “Organic anion transporting polypeptides expressed in liver and brain mediate uptake of microcystin” (Toxicol Appl Pharmacol, 2005).

The target in data set [1] is T1, Solute carrier organic anion transporter family member 1B3 (OATP1B3) (Homo sapiens, UniProt Q9NPD5).
T1 sequence (Q9NPD5 whole entry): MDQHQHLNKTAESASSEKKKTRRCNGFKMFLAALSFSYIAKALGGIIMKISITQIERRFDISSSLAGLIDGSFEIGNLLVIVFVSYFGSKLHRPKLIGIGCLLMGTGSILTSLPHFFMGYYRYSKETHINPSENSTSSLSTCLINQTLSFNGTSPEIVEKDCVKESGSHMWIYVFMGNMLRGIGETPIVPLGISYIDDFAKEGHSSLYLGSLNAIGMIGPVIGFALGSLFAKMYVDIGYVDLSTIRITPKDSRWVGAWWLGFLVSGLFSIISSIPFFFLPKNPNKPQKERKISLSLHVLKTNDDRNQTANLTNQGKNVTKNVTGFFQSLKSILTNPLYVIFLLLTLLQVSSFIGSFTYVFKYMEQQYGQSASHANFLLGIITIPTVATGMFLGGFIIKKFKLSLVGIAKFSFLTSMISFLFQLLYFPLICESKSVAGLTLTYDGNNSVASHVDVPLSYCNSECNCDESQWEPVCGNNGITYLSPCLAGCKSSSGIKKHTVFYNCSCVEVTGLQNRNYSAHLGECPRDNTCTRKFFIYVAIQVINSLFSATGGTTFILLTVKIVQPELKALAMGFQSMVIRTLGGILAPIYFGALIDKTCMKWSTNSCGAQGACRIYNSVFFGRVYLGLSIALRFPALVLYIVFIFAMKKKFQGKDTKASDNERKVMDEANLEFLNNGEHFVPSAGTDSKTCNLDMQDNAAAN
The data set can be described thus: (§1) TP_TRANSPORTER: uptake in Xenopus laevis oocytes. It counts as functional, cell-based, Oocyte.

The target of data set [2] is T2, Solute carrier organic anion transporter family member 1B1 (OATP1B1) (Homo sapiens, UniProt Q9Y6L6).
T2 sequence (Q9Y6L6 whole entry): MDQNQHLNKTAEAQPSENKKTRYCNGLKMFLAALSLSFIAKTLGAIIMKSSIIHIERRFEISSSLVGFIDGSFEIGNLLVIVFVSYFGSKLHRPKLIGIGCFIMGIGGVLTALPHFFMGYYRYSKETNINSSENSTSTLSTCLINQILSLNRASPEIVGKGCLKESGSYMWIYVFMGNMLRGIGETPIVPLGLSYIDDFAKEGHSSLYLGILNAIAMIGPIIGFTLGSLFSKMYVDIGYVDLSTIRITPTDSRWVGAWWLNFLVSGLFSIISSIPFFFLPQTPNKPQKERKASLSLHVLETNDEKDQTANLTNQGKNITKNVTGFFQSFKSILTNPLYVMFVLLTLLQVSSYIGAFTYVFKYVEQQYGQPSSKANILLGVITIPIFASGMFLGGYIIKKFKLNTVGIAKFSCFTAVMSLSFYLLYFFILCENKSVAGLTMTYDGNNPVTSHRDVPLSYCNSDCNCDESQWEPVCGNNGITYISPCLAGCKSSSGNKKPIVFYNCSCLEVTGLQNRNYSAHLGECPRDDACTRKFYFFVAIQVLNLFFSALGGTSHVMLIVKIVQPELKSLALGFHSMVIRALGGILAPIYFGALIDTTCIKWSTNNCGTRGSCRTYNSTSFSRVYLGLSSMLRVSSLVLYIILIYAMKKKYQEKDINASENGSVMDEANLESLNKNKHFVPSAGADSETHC
The data set is described as §1. Type of data set: functional, cell-based, Oocyte.

The target in data set [3] is T3, Solute carrier organic anion transporter family member 1A2 (OATP1A2) (Homo sapiens, UniProt P46721).
T3 sequence (P46721 whole entry): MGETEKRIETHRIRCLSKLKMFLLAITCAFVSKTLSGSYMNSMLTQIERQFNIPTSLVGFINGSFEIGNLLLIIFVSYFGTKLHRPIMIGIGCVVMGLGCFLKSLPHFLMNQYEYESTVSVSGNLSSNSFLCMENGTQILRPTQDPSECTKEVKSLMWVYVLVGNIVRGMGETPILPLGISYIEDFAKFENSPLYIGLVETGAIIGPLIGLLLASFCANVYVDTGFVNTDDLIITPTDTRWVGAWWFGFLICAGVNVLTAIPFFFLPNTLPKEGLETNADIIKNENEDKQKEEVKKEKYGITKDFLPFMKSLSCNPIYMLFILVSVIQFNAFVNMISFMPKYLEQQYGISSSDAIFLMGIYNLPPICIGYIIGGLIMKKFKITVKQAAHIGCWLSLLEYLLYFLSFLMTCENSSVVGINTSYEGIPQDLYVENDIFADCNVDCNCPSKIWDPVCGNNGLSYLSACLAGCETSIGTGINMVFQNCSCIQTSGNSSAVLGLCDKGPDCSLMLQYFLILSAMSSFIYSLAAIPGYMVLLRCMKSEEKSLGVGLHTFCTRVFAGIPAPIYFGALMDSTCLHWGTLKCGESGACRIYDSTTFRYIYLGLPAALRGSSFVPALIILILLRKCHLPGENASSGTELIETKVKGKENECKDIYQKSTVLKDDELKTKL
The data set is described as §1. Type of data set: functional, cell-based, Oocyte.

Data set [4] concerns the target T4, Solute carrier organic anion transporter family member 2B1 (Homo sapiens, UniProt O94956).
T4 sequence (O94956 whole entry): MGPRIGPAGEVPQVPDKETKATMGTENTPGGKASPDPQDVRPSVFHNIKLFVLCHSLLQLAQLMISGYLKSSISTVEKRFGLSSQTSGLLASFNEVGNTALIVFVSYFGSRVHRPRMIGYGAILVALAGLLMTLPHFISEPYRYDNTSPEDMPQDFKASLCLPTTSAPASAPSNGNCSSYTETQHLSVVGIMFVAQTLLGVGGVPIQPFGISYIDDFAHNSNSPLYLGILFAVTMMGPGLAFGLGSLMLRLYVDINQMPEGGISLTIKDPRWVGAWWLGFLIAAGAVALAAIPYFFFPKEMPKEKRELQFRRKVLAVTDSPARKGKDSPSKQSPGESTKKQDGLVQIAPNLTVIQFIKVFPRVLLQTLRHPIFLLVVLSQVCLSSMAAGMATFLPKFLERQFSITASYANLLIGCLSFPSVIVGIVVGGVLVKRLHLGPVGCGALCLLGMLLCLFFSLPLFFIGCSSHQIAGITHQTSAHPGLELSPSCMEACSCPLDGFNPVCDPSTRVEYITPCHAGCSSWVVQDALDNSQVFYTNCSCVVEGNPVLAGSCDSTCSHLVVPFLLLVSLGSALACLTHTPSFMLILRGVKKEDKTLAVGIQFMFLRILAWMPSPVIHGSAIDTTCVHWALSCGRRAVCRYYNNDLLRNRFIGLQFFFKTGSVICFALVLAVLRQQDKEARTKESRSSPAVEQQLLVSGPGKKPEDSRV
The description is as §1. Type of data set: functional, cell-based. The settings on record: oocyte.

Data set [5] concerns the target T5, Solute carrier organic anion transporter family member 1B2 (Rattus norvegicus, UniProt Q9QZX8).
T5 sequence (Q9QZX8 whole entry): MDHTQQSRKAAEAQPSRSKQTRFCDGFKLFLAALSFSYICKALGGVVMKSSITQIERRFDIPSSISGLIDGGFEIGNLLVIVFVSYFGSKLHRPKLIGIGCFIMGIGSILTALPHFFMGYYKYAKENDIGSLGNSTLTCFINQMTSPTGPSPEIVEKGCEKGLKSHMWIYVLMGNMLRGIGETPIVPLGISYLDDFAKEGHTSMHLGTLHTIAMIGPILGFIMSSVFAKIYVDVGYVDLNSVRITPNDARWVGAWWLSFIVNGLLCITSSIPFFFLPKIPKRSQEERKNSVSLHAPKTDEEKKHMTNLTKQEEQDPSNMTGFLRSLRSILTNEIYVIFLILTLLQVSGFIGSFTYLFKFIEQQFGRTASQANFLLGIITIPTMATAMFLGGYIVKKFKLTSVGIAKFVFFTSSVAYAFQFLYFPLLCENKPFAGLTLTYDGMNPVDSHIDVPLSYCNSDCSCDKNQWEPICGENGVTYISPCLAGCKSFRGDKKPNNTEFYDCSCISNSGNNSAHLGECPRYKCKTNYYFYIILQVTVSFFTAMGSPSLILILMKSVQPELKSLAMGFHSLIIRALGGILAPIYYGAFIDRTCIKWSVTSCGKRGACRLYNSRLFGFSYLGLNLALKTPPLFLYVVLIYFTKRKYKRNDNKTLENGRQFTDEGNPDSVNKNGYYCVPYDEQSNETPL
Described as §1. Type of data set: functional, cell-based. To be noted: oocyte.

Data set [6] concerns the target T6, Solute carrier organic anion transporter family member 1A4 (Rattus norvegicus, UniProt O35913).
T6 sequence (O35913 whole entry): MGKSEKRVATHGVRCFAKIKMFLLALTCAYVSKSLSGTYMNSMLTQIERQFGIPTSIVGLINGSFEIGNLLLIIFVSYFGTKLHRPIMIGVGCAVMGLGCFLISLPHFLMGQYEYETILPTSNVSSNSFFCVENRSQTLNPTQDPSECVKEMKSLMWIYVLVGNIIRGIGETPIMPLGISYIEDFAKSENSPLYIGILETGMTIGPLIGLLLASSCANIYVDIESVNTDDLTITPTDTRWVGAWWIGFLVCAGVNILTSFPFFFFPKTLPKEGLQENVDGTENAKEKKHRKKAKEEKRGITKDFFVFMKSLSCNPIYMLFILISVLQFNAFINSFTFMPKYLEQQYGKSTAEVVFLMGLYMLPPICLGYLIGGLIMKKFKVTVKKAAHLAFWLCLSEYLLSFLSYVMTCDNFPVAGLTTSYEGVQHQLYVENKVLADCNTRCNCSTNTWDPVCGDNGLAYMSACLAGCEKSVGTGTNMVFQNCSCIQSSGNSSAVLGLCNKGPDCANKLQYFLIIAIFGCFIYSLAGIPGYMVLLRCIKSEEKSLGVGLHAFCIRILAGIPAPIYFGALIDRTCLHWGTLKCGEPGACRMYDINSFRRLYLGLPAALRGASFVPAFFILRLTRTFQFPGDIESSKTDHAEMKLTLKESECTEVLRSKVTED
The description is as §1. Type of data set: functional, cell-based. The settings on record: oocyte.

For data set [7], the target named is T7, Solute carrier organic anion transporter family member 1A1 (Rattus norvegicus, UniProt P46720).
T7 sequence (P46720 whole entry): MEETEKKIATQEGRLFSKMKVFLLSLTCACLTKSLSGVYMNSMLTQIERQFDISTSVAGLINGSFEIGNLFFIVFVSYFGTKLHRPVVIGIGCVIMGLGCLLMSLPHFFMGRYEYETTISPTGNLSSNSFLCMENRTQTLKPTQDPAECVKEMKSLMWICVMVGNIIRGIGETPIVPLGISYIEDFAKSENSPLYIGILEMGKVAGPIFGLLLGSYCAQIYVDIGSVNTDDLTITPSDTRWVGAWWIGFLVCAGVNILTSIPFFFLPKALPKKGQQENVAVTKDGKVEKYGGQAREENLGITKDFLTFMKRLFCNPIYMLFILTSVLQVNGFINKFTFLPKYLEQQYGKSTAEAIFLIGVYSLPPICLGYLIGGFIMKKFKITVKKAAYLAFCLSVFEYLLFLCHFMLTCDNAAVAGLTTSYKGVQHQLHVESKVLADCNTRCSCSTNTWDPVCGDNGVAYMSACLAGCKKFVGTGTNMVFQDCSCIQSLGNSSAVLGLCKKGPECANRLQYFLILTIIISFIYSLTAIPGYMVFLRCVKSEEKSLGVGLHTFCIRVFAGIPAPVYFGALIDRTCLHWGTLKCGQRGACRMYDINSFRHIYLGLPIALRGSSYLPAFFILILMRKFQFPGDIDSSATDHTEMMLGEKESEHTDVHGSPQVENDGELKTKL
The data set is described as §1. It counts as functional, cell-based. To be noted: oocyte.

Numbered stars: 1 amine (or outer) side, 2 acyl side, 3 side chain; on linkers, the order of the positions; unused ones are H or OH. Bridge positions count the residues as written; N and C are the ends. Square brackets hold non-standard residues; d marks the D form. Peptide text beside a SMILES is read from it. Adda = CO[C@@H](Cc1ccccc1)[C@@H](C)/C=C(C)/C=C/[C@H](N[*:1])[C@H](C)C(=O)[*:2]; dAsp(3S-Me) = C[C@H](C(=O)[*:3])[C@@H](N[*:1])C(=O)[*:2]; d(γGlu) = O=C(O)[C@@H](CCC(=O)[*:2])N[*:1]; NMeDha = C=C(NC)C(=O)O

As usually defined, the Km is the concentration of substrate that gives half-maximal velocity. In the case of `C=C1C(=O)N[C@H](C)C(=O)N[C@@H](CC(C)C)C(=O)N[C@@H](C(=O)O)[C@H](C)C(=O)N[C@@H](CCCNC(=N)N)C(=O)N[C@@H](/C=C/C(C)=C/[C@H](C)[C@H](Cc2ccccc2)OC)[C@H](C)C(=O)N[C@@H](C(=O)O)CCC(=O)N1C` [MICROCYSTIN-LR] (R[Adda][d(γGlu)][NMeDha][dA]L[dAsp(3S-Me)]-OH; lactam N-7), the Km in data set [1] came out at 12.4 µM; in data set [2], 12.4 µM; in data set [3] it was 20 µM. The Activity result in data set [4] is “is not a substrate [(-)]”; in data set [5] it was “substrate [(+)]”; in data set [6], “is not a substrate [(-)]”; in data set [7] it was “is not a substrate [(-)]”.
